# Experimental data reported in patent US9113629B2, “4-amino-6-(4-substituted-phenyl)-picolinates and 6-amino-2-(4-substituted-phenyl)-pyrimidine-4-carboxylates and their use as herbicides” (DOW AGROSCIENCES LLC, priority 2013, dated 2015).
# Columns and labels:
# [1] = system: MATSS: scented mayweed (Matricaria chamomilla), pineappleweed (Matricaria matricarioides); test: Post-emergent Test III, herbicidal activity in wheat and barley; type: in vivo; settings: for pest or weed control at 35 g/ha / pest or weed control at 70 g/ha / pest or weed control at 140 g/ha: Matricaria chamomilla, post-emergence, 504 h, read-out: Visual Growth Reduction (%) 21 Days After Application MATSS; for pest or weed control at 35 g/ha: 35 g ai/ha; for pest or weed control at 70 g/ha: 70 g ai/ha; for pest or weed control at 140 g/ha: 140 g ai/ha; for GR50 MATSS / GR80 MATSS: probit analysis, 21 days after application; for GR50 MATSS: dose for growth reduction of 50 percent; for GR80 MATSS: dose for growth reduction of 80 percent
# Outline: (§1)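 Plants at the second to third true-leaf stage, grown in a greenhouse at about 18/17 °C with a 14 h photoperiod, were sprayed post-emergence at 187 L/ha with the high rate and ½× to 1/16× serial dilutions in an acetone/DMSO/crop-oil/surfactant carrier. Injury was rated visually at 21 d on a 0–100% scale, and GR20–GR90 were derived by probit analysis.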
# [2] = system: LOLSS: ryegrass including, Italian ryegrass (Lolium multiflorum), rigid ryegrass (Lolium rigidum), annual ryegrass (Lolium multiflorum subsp. Gaudini); test: as above; type: in vivo; settings: probit analysis, 21 days after application; for GR50 LOLSS: dose for growth reduction of 50 percent; for GR80 LOLSS: dose for growth reduction of 80 percent
# Outline: as §1
# [3] = system: HORSS: barley, including spring and winter (Hordeum vulgare); test: as above; type: in vivo; settings: for pest or weed control at 35 g/ha / pest or weed control at 70 g/ha / pest or weed control at 140 g/ha: Hordeum vulgare, post-emergence, 504 h, read-out: Visual Growth Reduction (%) 21 Days After Application HORSS; for pest or weed control at 35 g/ha: 35 g ai/ha; for pest or weed control at 70 g/ha: 70 g ai/ha; for pest or weed control at 140 g/ha: 140 g ai/ha; for GR20 HORSS: probit analysis, dose for growth reduction of 20 percent, 21 days after application, crop
# Outline: as §1
# [4] = system: SETVI: green foxtail (Setaria viridis); test: as above; type: in vivo; settings: for pest or weed control at 35 g/ha / pest or weed control at 70 g/ha / pest or weed control at 140 g/ha: Setaria viridis, post-emergence, 504 h, read-out: Visual Growth Reduction (%) 21 Days After Application SETVI; for pest or weed control at 35 g/ha: 35 g ai/ha; for pest or weed control at 70 g/ha: 70 g ai/ha; for pest or weed control at 140 g/ha: 140 g ai/ha; for GR50 SETVI / GR80 SETVI: probit analysis, 21 days after application; for GR50 SETVI: dose for growth reduction of 50 percent; for GR80 SETVI: dose for growth reduction of 80 percent
# Outline: as §1
# [5] = as above; type: in vivo, Lolium multiflorum, Lolium rigidum; settings: Lolium multiflorum, post-emergence, 504 h, read-out: Visual Growth Reduction (%) 21 Days After Application LOLSS; for pest or weed control at 35 g/ha: 35 g ai/ha; for pest or weed control at 70 g/ha: 70 g ai/ha; for pest or weed control at 140 g/ha: 140 g ai/ha
# Outline: as §1
# [6] = system: TRZSS: wheat, including spring and winter (Triticum aestivum); test: as above; type: in vivo; settings: for pest or weed control at 35 g/ha / pest or weed control at 70 g/ha / pest or weed control at 140 g/ha: Triticum aestivum, post-emergence, 504 h, read-out: Visual Growth Reduction (%) 21 Days After Application TRZSS; for pest or weed control at 35 g/ha: 35 g ai/ha; for pest or weed control at 70 g/ha: 70 g ai/ha; for pest or weed control at 140 g/ha: 140 g ai/ha; for GR20 TRZSS: probit analysis, dose for growth reduction of 20 percent, 21 days after application, crop
# Outline: as §1
# [7] = system: KCHSC: kochia (Kochia scoparia); test: as above; type: in vivo; settings: for pest or weed control at 35 g/ha / pest or weed control at 70 g/ha / pest or weed control at 140 g/ha: Bassia scoparia, post-emergence, 504 h, read-out: Visual Growth Reduction (%) 21 Days After Application KCHSC; for pest or weed control at 35 g/ha: 35 g ai/ha; for pest or weed control at 70 g/ha: 70 g ai/ha; for pest or weed control at 140 g/ha: 140 g ai/ha; for GR50 KCHSC / GR80 KCHSC: probit analysis, 21 days after application; for GR50 KCHSC: dose for growth reduction of 50 percent; for GR80 KCHSC: dose for growth reduction of 80 percent
# Outline: as §1
# [8] = system: APESV: bentgrass (Apera spica-venti); test: as above; type: in vivo; settings: for pest or weed control at 35 g/ha / pest or weed control at 70 g/ha / pest or weed control at 140 g/ha: Apera spica-venti, post-emergence, 504 h, read-out: Visual Growth Reduction (%) 21 Days After Application APESV; for pest or weed control at 35 g/ha: 35 g ai/ha; for pest or weed control at 70 g/ha: 70 g ai/ha; for pest or weed control at 140 g/ha: 140 g ai/ha; for GR50 APESV / GR80 APESV: probit analysis, 21 days after application; for GR50 APESV: dose for growth reduction of 50 percent; for GR80 APESV: dose for growth reduction of 80 percent
# Outline: as §1
Structure (SMILES),pest or weed control at 35 g/ha [1],pest or weed control at 70 g/ha [1],pest or weed control at 140 g/ha [1],GR50 MATSS [1],GR80 MATSS [1],GR50 LOLSS [2],GR80 LOLSS [2],pest or weed control at 35 g/ha [3],pest or weed control at 70 g/ha [3],pest or weed control at 140 g/ha [3],GR20 HORSS [3],pest or weed control at 35 g/ha [4],pest or weed control at 70 g/ha [4],pest or weed control at 140 g/ha [4],GR50 SETVI [4],GR80 SETVI [4],pest or weed control at 35 g/ha [5],pest or weed control at 70 g/ha [5],pest or weed control at 140 g/ha [5],pest or weed control at 35 g/ha [6],further results
"COC(=O)c1nc(-c2ccc(Br)cc2)c(F)c(N)c1Cl [Compound 138, Methyl 4-amino-6-(4-bromophenyl)-3-chloro-5-fluoropicolinate]",60 to 74%,85 to 94%,85 to 94%,16 g ai/ha,51 g ai/ha,20 g ai/ha,66 g ai/ha,85 to 94%,85 to 94%,95 to 100%,1 g ai/ha,85 to 94%,85 to 94%,95 to 100%,8 g ai/ha,32 g ai/ha,60 to 74%,75 to 84%,85 to 94%,85 to 94%,pest or weed control at 70 g/ha [6]: 85 to 94%; pest or weed control at 140 g/ha [6]: 85 to 94%; GR20 TRZSS [6]: 1 g ai/ha; pest or weed control at 35 g/ha [7]: 95 to 100%; pest or weed control at 70 g/ha [7]: 95 to 100%; pest or weed control at 140 g/ha [7]: 95 to 100%; GR50 KCHSC [7]: 1 g ai/ha; GR80 KCHSC [7]: 4 g ai/ha; pest or weed control at 35 g/ha [8]: 85 to 94%; pest or weed control at 70 g/ha [8]: 85 to 94%; pest or weed control at 140 g/ha [8]: 95 to 100%; GR50 APESV [8]: 2 g ai/ha; GR80 APESV [8]: 12 g ai/ha
COC(=O)c1nc(-c2ccc(C#N)cc2)c(F)c(N)c1Cl [Compound 142],0 to 29%,0 to 29%,30 to 44%,>140 g ai/ha,>140 g ai/ha,>140 g ai/ha,>140 g ai/ha,0 to 29%,0 to 29%,0 to 29%,57 g ai/ha,0 to 29%,0 to 29%,0 to 29%,>140 g ai/ha,>140 g ai/ha,0 to 29%,0 to 29%,0 to 29%,0 to 29%,pest or weed control at 70 g/ha [6]: 0 to 29%; pest or weed control at 140 g/ha [6]: 45 to 59%; GR20 TRZSS [6]: >140 g ai/ha; pest or weed control at 35 g/ha [7]: 45 to 59%; pest or weed control at 70 g/ha [7]: 60 to 74%; pest or weed control at 140 g/ha [7]: 60 to 74%; GR50 KCHSC [7]: 17 g ai/ha; GR80 KCHSC [7]: >140 g ai/ha; pest or weed control at 35 g/ha [8]: 0 to 29%; pest or weed control at 70 g/ha [8]: 0 to 29%; pest or weed control at 140 g/ha [8]: 0 to 29%; GR50 APESV [8]: >140 g ai/ha; GR80 APESV [8]: >140 g ai/ha
Nc1c(F)c(-c2ccc(OC(F)F)cc2)nc(C(=O)O)c1Cl [Compound 143],0 to 29%,60 to 74%,60 to 74%,67 g ai/ha,>140 g ai/ha,116 g ai/ha,>140 g ai/ha,60 to 74%,75 to 84%,85 to 94%,2 g ai/ha,45 to 59%,45 to 59%,60 to 74%,52 g ai/ha,>140 g ai/ha,0 to 29%,30 to 44%,45 to 59%,60 to 74%,pest or weed control at 70 g/ha [6]: 75 to 84%; pest or weed control at 140 g/ha [6]: 75 to 84%; GR20 TRZSS [6]: 0 g ai/ha; pest or weed control at 35 g/ha [7]: 30 to 44%; pest or weed control at 70 g/ha [7]: 30 to 44%; pest or weed control at 140 g/ha [7]: 45 to 59%; GR50 KCHSC [7]: >140 g ai/ha; GR80 KCHSC [7]: >140 g ai/ha; pest or weed control at 35 g/ha [8]: 60 to 74%; pest or weed control at 70 g/ha [8]: 60 to 74%; pest or weed control at 140 g/ha [8]: 75 to 84%; GR50 APESV [8]: 31 g ai/ha; GR80 APESV [8]: 129 g ai/ha
